This passage reports IC50 results from patent publication US20250188079A1, “INHIBITING CYCLIC AMP-RESPONSIVE ELEMENT-BINDING PROTEIN (CREB)” (Forma Therapeutics, Inc., priority 2019, published 2025).

For the experiment, the target named is CBP (Homo sapiens (Human), UniProt Q92793). Nature of the experiment: HTRF biochemical assay for CBP activity (TR-FRET, bromodomain). In kind it is binding. Conditions: geometric mean, 10-point 3-fold dilution 33 μM to 1.7 nM, read-out: BROMO IC50 TRF TB CBP (μM gmean). In short, it runs like this:
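IC50 derives from a 4-parameter logistic fit of % inhibition, calculated from the 520/490 nm TR-FRET ratio against DMSO and no-enzyme controls. Final compound levels spanned 33 μM to 1.7 nM (10 points, 3-fold), with CBP and peptide ligand in Hepes pH 7.5/GSH/BGG/BSA/Triton buffer, incubated at room temperature for varying times.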

Sequence of CBP (Q92793 1085-1192): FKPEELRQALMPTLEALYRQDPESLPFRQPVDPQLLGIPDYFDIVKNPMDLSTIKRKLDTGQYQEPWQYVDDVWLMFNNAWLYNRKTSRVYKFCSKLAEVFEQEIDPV

The term IC50 denotes the concentration needed to halve the response being measured. On to `COC(=O)N1CCc2ccc3c(nc(C4CCCCC4)n3C[C@@H](C(=O)O)c3ccc(F)c(OC)c3)c2C1` [Compound 190], for which the half-maximal inhibitory concentration (IC50) lay in the range of 0.01 to 0.1 µM. As for `COC(=O)N1CCc2ccc3c(nc(C45CC(C(=O)O)(C4)C5)n3[C@@H](C)Cc3ccccc3)c2C1` [Compound 119], the figure is 0.001 to 0.01 µM; as for `COC(=O)N1Cc2c(ccc3c2nc(C2CCCCC2)n3CCc2ccccc2)CC1C` (stereo not shown) [Compound 238], 0.01 to 0.1 µM; as for `COC(=O)N1CCc2ccc3c(nc([C@H]4CC[C@H](C(=O)O)CC4)n3[C@@H](C)Cc3ccncc3)c2C1` [Compound 216], 0.01 to 0.1 µM. As for `COC(=O)N1CCc2ccc3c(nc(C4CCCCC4)n3[C@@H](C)C[C@H]3CC[C@H](C(=O)O)CC3)c2C1` [Compound 48], the half-inhibitory concentration (IC50) is 0.001 to 0.01 µM. Turning to `COC(=O)N1CCc2ccc3c(nc([C@H]4CC[C@H](C(=O)O)CC4)n3[C@H](C)C[C@]3(C)CC[C@@H](OC)CC3)c2C1` [Compound 267], the IC50 is 0.01 to 0.1 µM.

With `COC(=O)N1CCc2ccc3c(nc([C@H]4CC[C@H](C(=O)O)CC4)n3[C@@H](C)CC3CCCCC3)c2C1` [Compound 200], the IC50 lay within 0.01 to 0.1 µM. In the case of `COC(=O)N1CCc2ccc3c(nc([C@H]4C[C@@H](C(=O)O)C4)n3[C@H](C)Cc3ccccc3C)c2C1` [Compound 340], the IC50 was in the range of 0.1 to 1 µM.

In the case of “(1S,3S)-3-[3-[(2S)-2-(3,4-difluorophenyl)propyl]-8-(methoxycarbonyl)-3H,6H,7H,8H,9H-imidazo[4,5-h]isoquinolin-2-yl]cyclohexane-1-carboxylic acid [Compound 29]”, the concentration for half-maximal inhibition (IC50) lay in the range of 0.001 to 0.01 µM. As for `COC(=O)N1CCc2ccc3c(nc([C@H]4CC[C@](C)(C(=O)O)CC4)n3[C@H](C)Cc3ccccc3)c2C1` [Compound 333], the figure is 0.1 to 1 µM; as for `COC(=O)N1CCc2ccc3c(nc(-c4cccnc4)n3[C@@H](C)Cc3ccccc3)c2C1` [Compound 127], 0.001 to 0.01 µM. As for `COC(=O)N1CCc2ccc3c(nc([C@H]4CC[C@H](C(=O)O)CC4)n3[C@@H](C)C[C@H]3CC[C@@H](OC)CC3)c2C1` [Compound 220], the IC50 fell in the range of 0.01 to 0.1 µM. `COC(=O)N1CCc2ccc3c(nc(-c4ccc(CC(=O)O)cc4)n3[C@@H](C)Cn3cc(Cl)cn3)c2C1` [Compound 122]: the IC50 was 0.001 to 0.01 µM. On to `COC(=O)N1CCc2ccc3c(nc(N4CCC(C(=O)O)CC4)n3[C@H](C)Cn3cc(C(F)(F)F)cn3)c2C1` [Compound 285], for which the 50% inhibitory concentration (IC50) fell in the range of 0.01 to 0.1 µM. For the molecule `COC(=O)N1CCc2ccc3c(nc(N4CCC[C@H](C(=O)O)C4)n3[C@H](C)Cc3ccccc3)c2C1` [Compound 339], the half-inhibitory concentration (IC50) was 0.1 to 1 µM.

With `COC(=O)N1CCc2ccc3c(nc([C@@H]4CCC[C@H](C(=O)O)C4)n3[C@@H](C)Cc3ccccc3)c2C1` (single isomer, unassigned) [Compound 203], the IC50 fell in the range of 0.01 to 0.1 µM. As to “(1S,3S)-3-[3-[(2S)-1-(3,4-difluorophenyl)propan-2-yl]-8-(methoxycarbonyl)-3H,6H,7H,8H,9H-imidazo[4,5-h]isoquinolin-2-yl]cyclohexane-1-carboxylic acid [Compound 60]”, the IC50 lay in the range of 0.001 to 0.01 µM. Consider `COC(=O)N1CCc2c([C@@H]3CCOC3)cc3c(nc([C@H]4CC[C@H](C(=O)O)CC4)n3[C@H](C)Cc3ccccc3)c2C1` [Compound 44], for which the half-maximal inhibitory concentration (IC50) fell in the range of 0.001 to 0.01 µM. Regarding `COC(=O)N1CCc2ccc3c(nc(C45CC(C4)C5)n3C[C@H](C(=O)O)c3ccccc3)c2C1` [Compound 128], the IC50 fell in the range of 0.001 to 0.01 µM. With `COC(=O)N1CCc2ccc3c(nc([C@H]4CCC[C@@H](C(=O)O)C4)n3[C@H](C)Cc3ccccc3)c2C1` (single isomer, unassigned) [Compound 12], the IC50 is 0.001 to 0.01 µM. Take `COC(=O)N1CCc2ccc3c(nc([C@H]4CC[C@H](C(=O)O)CC4)n3[C@H]3CCc4ccccc4C3)c2C1` [Compound 315]: the IC50 lay within 0.1 to 1 µM.

For `COC(=O)N1CCc2ccc3c(nc(C4CCCCC4)n3[C@H](CC(=O)O)c3ccccc3)c2C1` [Compound 180], the IC50 fell in the range of 0.01 to 0.1 µM. With `COC(=O)N1CCc2ccc3c(nc([C@H]4CCC[C@H](C(=O)O)C4)n3[C@@H](C)Cc3ccccc3)c2C1` [Compound 261], the IC50 was in the range of 0.01 to 0.1 µM.

For the molecule `COC(=O)N1CCc2ccc3c(nc([C@H]4C[C@@H](C(=O)O)C4)n3[C@@H](C)Cc3ccccc3C)c2C1` [Compound 130], the half-maximal inhibitory concentration (IC50) lay within 0.001 to 0.01 µM. To `COC(=O)N1CCc2ccc3c(nc(C4CCCCC4)n3C[C@H](C(=O)O)c3cc(F)c(C)cc3OC)c2C1` (single isomer, unassigned) [Compound 27] belongs 0.001 to 0.01 µM; to `COC(=O)N1CCc2ccc3c(nc([C@H]4CC[C@H](C(=O)O)CC4)n3[C@@H](C)C[C@@H]3CCCCO3)c2C1` [Compound 260], 0.01 to 0.1 µM; to `COC(=O)N1CCc2ccc3c(nc([C@H]4CC[C@H](C(=O)O)CC4)n3C3(Cc4ccccc4)COC3)c2C1` [Compound 271], 0.01 to 0.1 µM. Regarding `COC(=O)N1CCc2ccc3c(nc(N4CCC(C(=O)O)CC4)n3[C@@H](C)Cc3ccccc3)c2C1` (single isomer, unassigned) [Compound 5], the IC50 fell in the range of 0.001 to 0.01 µM. As to `COC(=O)N1CCc2ccc3c(nc(C4CCN(S(C)(=O)=O)CC4)n3[C@@H](C)Cc3ccccc3)c2C1` [Compound 139], the IC50 was 0.001 to 0.01 µM. On to `COC(=O)N1CCc2ccc3c(nc([C@H]4CC[C@H](C(=O)O)CC4)n3[C@@H](C)C[C@]3(C)CC[C@@H](OC)CC3)c2C1` [Compound 249], for which the IC50 is 0.01 to 0.1 µM. Turning to `COC(=O)N1CCc2ccc3c(nc([C@H]4CC[C@H](C(=O)O)CC4)n3[C@H](C)Cc3cccnc3)c2C1` [Compound 111], the IC50 was in the range of 0.001 to 0.01 µM. Turning to `COC(=O)N1CCc2ccc3c(nc([C@H]4CC[C@H](C(=O)O)CC4)n3[C@@H](C)Cc3cccc(F)c3F)c2C1` [Compound 71], the half-maximal inhibitory concentration (IC50) was in the range of 0.001 to 0.01 µM. For `COC(=O)N1CCc2ccc3c(nc([C@H]4CC[C@H](C(=O)O)CC4)n3C[C@H](OC)c3ccccc3)c2C1` [Compound 191], the IC50 lay within 0.01 to 0.1 µM. With `COC(=O)N1CCc2ccc3c(nc(C4CCCC(C(=O)O)C4)n3C[C@H](C)c3ccc(F)c(F)c3)c2C1` (stereo in doubt) [Compound 30, (1S,3S)-3[3-[(2R)-2-(3,4-difluorophenyl)propyl]-8-(methoxycarbonyl)-3H,6H,7H,8H,9H-imidazo[4,5-h]isoquinolin-2-yl]cyclohexane-1-carboxylic acid], the IC50 lay in the range of 0.001 to 0.01 µM. On to `COC(=O)N1CCc2ccc3c(nc(C4CCCCC4)n3[C@@H](CO)Cc3cccc(C(=O)O)c3)c2C1` [Compound 152], for which the IC50 lay in the range of 0.001 to 0.01 µM.

`COC(=O)N1CCc2ccc3c(nc(-c4ccc(C(=O)O)c(F)c4)n3[C@H](C)Cc3ccccc3)c2C1` [Compound 280]: the 50% inhibitory concentration (IC50) was in the range of 0.01 to 0.1 µM. Consider `COC(=O)N1CCc2ccc3c(nc(N4CCCCC4)n3C[C@@H](CC(=O)O)c3ccc(F)c(F)c3)c2C1` [Compound 25], for which the half-inhibitory concentration (IC50) lay within 0.001 to 0.01 µM.

As to `COC(=O)N1CCc2c([C@@H]3CCOC3)cc3c(nc([C@H]4CC[C@H](C(=O)O)CC4)n3[C@@H](C)Cc3ccccc3)c2C1` [Compound 50], the 50% inhibitory concentration (IC50) lay within 0.001 to 0.01 µM. Take `COC(=O)N1CCc2ccc3c(nc(C4CCCCC4)n3[C@H](C)C[C@@H]3CCCC[C@H]3C(=O)O)c2C1` [Compound 251]: the IC50 lay in the range of 0.01 to 0.1 µM. As for `COC(=O)N1Cc2c(ccc3c2nc([C@H]2CC[C@H](C(=O)O)CC2)n3[C@H](C)Cc2ccc(F)c(F)c2)C[C@@H]1C` [Compound 129], the IC50 fell in the range of 0.001 to 0.01 µM.

Turning to `COC(=O)N1CCc2ccc3c(nc(N4CCC(C(=O)O)CC4)n3[C@@H](C)Cn3cc(C(F)(F)F)cn3)c2C1` [Compound 46], the half-maximal inhibitory concentration (IC50) is 0.001 to 0.01 µM. Turning to `COC(=O)N1CCc2ccc3c(nc(C4CCCCC4)n3C[C@@H](CC(=O)O)c3cc(F)cc(OC)c3)c2C1` [Compound 35], the 50% inhibitory concentration (IC50) is 0.001 to 0.01 µM. Regarding `COC(=O)N1CCc2ccc3c(nc(C4CCCCC4)n3C[C@@H]3CCCC[C@@H]3C(=O)O)c2C1` [Compound 195], the concentration for half-maximal inhibition (IC50) fell in the range of 0.01 to 0.1 µM. Regarding `COC(=O)N1CCc2ccc3c(nc(C4CCN(S(C)(=O)=O)CC4)n3[C@H](C)Cc3ccccc3)c2C1` [Compound 319], the IC50 was 0.1 to 1 µM. In the case of `COC(=O)N1CCc2ccc3c(nc([C@H]4CC[C@H](C(=O)O)CC4)n3C[C@H]3CCc4ccccc4C3)c2C1` [Compound 169], the IC50 lay in the range of 0.001 to 0.01 µM. With `COC(=O)N1CCc2ccc3c(nc(C4CCCCC4)n3[C@@H](C)C[C@H]3CC[C@@H](C(=O)O)CC3)c2C1` [Compound 274], the IC50 fell in the range of 0.01 to 0.1 µM. Take `COC(=O)N1CCc2c(C#N)cc3c(nc([C@H]4CC[C@H](C(=O)O)CC4)n3[C@@H](C)Cc3ccccc3)c2C1` [Compound 52]: the IC50 was in the range of 0.001 to 0.01 µM.

Consider `COC(=O)N1CCc2ccc3c(nc(C4CCCCC4)n3CC[C@H]3CC[C@H](C(=O)O)CC3)c2C1` [Compound 243], for which the concentration for half-maximal inhibition (IC50) lay in the range of 0.01 to 0.1 µM. As for “(1S,3S)-3-[3-[(2R)-1-(3,4-difluorophenyl)propan-2-yl]-8-(methoxycarbonyl)-3H,6H,7H,8H,9H-imidazo[4,5-h]isoquinolin-2-yl]cyclohexane-1-carboxylic acid [Compound 31]”, the figure is 0.001 to 0.01 µM; as for `COC(=O)N1CCc2ccc3c(nc([C@@H]4CC[C@H](C(=O)O)C4)n3[C@H](C)Cc3ccccc3C)c2C1` [Compound 329], 0.1 to 1 µM; as for `COC(=O)N1CCc2ccc3c(nc(C4CCCCC4)n3CC[C@@H]3CCCC[C@H]3C(=O)O)c2C1` [Compound 235], 0.01 to 0.1 µM. For `COC(=O)N1CCc2c(Cl)cc3c(nc(C4CCCCC4)n3C[C@H](C(=O)O)c3ccccc3)c2C1` [Compound 223], the IC50 lay in the range of 0.01 to 0.1 µM. As to `COC(=O)N1CCc2ccc3c(nc([C@@H]4CCC[C@@H](C(=O)O)C4)n3C[C@H]3CC[C@@H](OC)CC3)c2C1` [Compound 259], the IC50 lay within 0.01 to 0.1 µM.

Take `COC(=O)N1CCc2ccc3c(nc([C@H]4CCC[C@H](C(=O)O)C4)n3[C@H](C)Cc3ccccc3)c2C1` [Compound 344]: the IC50 was 0.1 to 1 µM.

`COC(=O)N1CCc2ccc3c(nc([C@H]4CC[C@H](C(=O)O)CC4)n3[C@H](C)Cc3c(C)cccc3C)c2C1` [Compound 318]: the IC50 fell in the range of 0.1 to 1 µM.
